The values below come from patent US20200360465A1, “METHOD OF TREATING LOWER URINARY TRACT SYMPTOMS WITH FEXAPOTIDE TRIFLUTATE” (Nymox Corporation, priority 2019, published 2020).

Marks after values point to notes of the source that are not given here. Where no end group is shown, it is not given here.

Experiment [1] has as its system prostate glandular epithelial cells. The experiment in a line: In vitro tissue culture genetic array: apoptosis pathway activation. The experiment is classed as cell-based. The source says: FT is a new molecular entity which in vitro stimulates caspase pathways (activation of caspases 7, 8, and 10, caspase recruitment domains 6, 11, and 14, and DIABLO), tumor necrosis factor pathways (activation of TNF1, TNFSF6, TNFSF8, TNFSF9, CD70 ligands, and TNFRSF19L, TNFRSF25, TRAF2, TRAF3, TRAF4, TRAF6 receptors), and BCL pathways (activation of BIK, HRK, BCL2L10 and BCL3) in prostate glandular epithelial cells, based on tissue culture genetic array data. FT selectively causes loss of cell membrane integrity, mitochondrial metabolic arrest, depletion of RNA, DNA lysis and aggregation, and cell fragmentation and cell loss. The apoptotic process leads to typical ultrastructural progressive changes of membranous disruption and swelling, progressively deepening nuclear invaginations with eventual membranous bleb formations and cell death and fragmentation into apoptotic bodies. Histologically, typical apoptotic changes with positive immunohistochemical staining of markers for apoptosis are found throughout the injected areas for up to several weeks after treatment.

The subject of experiment [2] is Patients with BPH and who optionally also had LUTS. The experiment can be described thus: Clinical trial: inability to provide urine volume >125 mL (Qmax unable / Qmax failure) after intraprostatic injection. The experiment is classed as in vivo, human. As for the experimental part: (§1) Clinical trials were conducted on numerous individuals having BPH, some of whom also had LUTS. All protocols were done in accordance with applicable regulations, and carried out by physicians.
Patients with BPH and who optionally also had LUTS were given an intraprostatic injection of either a) FT 2.5 mg in phosphate buffered saline pH 7.2 (“PBS”) or b) PBS alone, under double-blind conditions by a urologist in an office setting under ultrasound guidance. Patients were followed for 12 months to several years with regular physical examinations, laboratory tests, and evaluations of symptoms. Urinary peak flow (Qmax) was measured by flow meter readings using standard techniques, at baseline, and at 12 months in subjects who were able to urinate adequate volume of urine (>125 mL) to provide a valid test. Subjects who were unable to void >=125 mL despite drinking as much water as they wanted were classified as “Qmax unable.” The numbers of subjects who became Qmax unable was compared in different groups.

Experiment [3] shares this test system. The experiment in a line: Clinical trial: nocturia frequency by patient questionnaires after intraprostatic injection. In kind it is in vivo, human.
Excerpt: Improvements in obstructive and irritative symptoms can be measured in accordance with techniques known in the art. For example, uroflowmeters are known to differentiate urine weight change to provide a continuous plot of the flow rate vs. time that is smoothed by internal electronic filtering to permit precise (±5%) measurement of Qmax. Schafer W, et al. “Good urodynamic practices: Uroflowmetry, filling cystometry and pressure-flow studies,” Neurourol Urodynamics, Vol. 21, pp. 261-74 (2002). Nocturia can be measured in a variety of manners, most of which involve patients completing a questionnaire before and after treatment to establish a baseline, and then determine the difference (improvement, lack of improvement, worsening, etc.) from baseline after treatment. Exemplary questionnaires include evaluating the scores from the nocturia question included in the International Prostate Symptom Score (IPSS), assessing the number of nocturnal voids (Boyarsky symptom score), the Madsen-Iversen Symptom Score, and the ICSmale questionnaire. See, e.g., Chartier-Kastler, et al., “The Measurement of Nocturia and its Impact on Quality of Sleep and Quality of Life in LUTS/BPH,” Eur. Urol. Supp., Vol. 5, pp. 3-11 (2006). A preferred method of measuring nocturia is by determining the mean change from baseline of the nocturia question in the IPSS (question 7). Question 7 solicits from the patient how many times over the past month they had to get up to urinate from the time they went to bed until the time they got up—the score ranging from none (score 0) to 5 or more times (score 5).
as §1
Patients with BPH and who optionally also had LUTS were given an intraprostatic injection of either a FT2.5 in 10 mL phosphate buffered saline pH 7.2 (“PBS”) or PBS 10 mL alone, under double-blind conditions by a urologist in an office setting under ultrasound guidance. Patients were followed for 12 months with regular physical examinations, laboratory tests, and evaluations of symptoms. The mean frequency of nocturia in the prior month was recorded in patient questionnaires.

The test system is the same in experiment [4]. The experiment in a line: Clinical trial: deterioration/worsening in urinary peak flow rate (Qmax worsening) after intraprostatic injection. In kind it is in vivo, human. As for the experimental part: as §1
Patients with BPH and who optionally also had LUTS were given an intraprostatic injection of either a) FT 2.5 mg in phosphate buffered saline pH 7.2 (“PBS”) or b) PBS alone, under double-blind conditions by a urologist in an office setting under ultrasound guidance. Patients were followed for 12 months to several years with regular physical examinations, laboratory tests, and evaluations of symptoms. Urinary peak flow (Qmax) was measured by flow meter readings using standard techniques, at 3 months and at 12 months.

[5] abbreviates: about 3 months after single dose of FT ≥2.5 mg, vs control.

“Fexapotide Triflutate (IDQQVLSRIKLEIKRCL; also: trifluoroacetate salt) [FT]”: in experiment [1], the “BCL pathways (activation of BIK, HRK, BCL2L10 and BCL3)” value is recorded as “stimulates”; the “caspase pathways (activation of caspases 7, 8, and 10, caspase recruitment domains 6, 11, and 14, and DIABLO)” value is “stimulates”; the “tumor necrosis factor pathways (activation of TNF1, TNFSF6, TNFSF8, TNFSF9, CD70 ligands, TNFRSF19L, TNFRSF25, TRAF2, TRAF3, TRAF4, TRAF6 receptors)” value is reported as “stimulates”. In addition, the “% of Qmax Unable at 12 months (% of patients with inability to provide urine volume >125 mL)” value in experiment [2] (12 months after single intraprostatic dose of 2.5 mg FT, placebo 5.9%) worked out at 4.5%. In addition, the “mean flow rate improvements, FT treated patients versus controls” value in experiment [2] (Qmax at baseline and 12 months, FT 2.5 mg vs PBS) is “similar”. Also, the “percent decrease in patients unable to provide urine volume ≥125 ml compared to control” value in experiment [2] (setting [5]) is “≈ 10%”. In addition, the “percentage of patients unable to provide a urine volume of ≥125 ml” value in experiment [2] (about 3 months after single dose of FT ≥2.5 mg, control 4.3%) stood at 3.9%. The “improvement in percentage of patients with Nocturia frequency change >0 from baseline to 12 months compared to control” value in experiment [3] (12 months after single dose of 2.5 mg FT, vs vehicle control) was “about 36%”. The “mean improvement in frequency of nocturia per night, FT treated subjects versus controls” value in experiment [3] (12 months follow-up, FT 2.5 mg vs PBS) is recorded as “similar”. Further, the “improvement in mean nocturia frequency points improvement from baseline versus control” value in experiment [3] (after 3 months, single dose of FT 2.5 mg, not significantly better than control) was roughly 8%. Further, in experiment [3] (single intraprostatic dose of 2.5 mg FT, placebo 19.19%, p = 0.0425 vs. Vehicle alone), the “% of Patients With Nocturia Frequency Change >0 from Baseline to 12 Months” value is 14.15%*. For the same substance, in experiment [4] (12 months after single intraprostatic dose of 2.5 mg FT, placebo 42%, p = 0.0239), the “% of Qmax Worsening at 12 months” value stood at 35%. In experiment [4] (Qmax at 3 months and 12 months, FT 2.5 mg vs PBS), the “flow rate mean improvements, FT treated group versus control group” value was “similar”. Besides, the “percent decrease in patients with deterioration/worsening in peak flow rate compared to control” value in experiment [4] (setting [5]) was “≈ 5.1%”. Besides, the “percentage of patients who showed deterioration/worsening in peak flow rate” value in experiment [4] (about 3 months after single dose of FT ≥2.5 mg, control 37%) amounted to 35.2%.
